The record followed here is BindingDB's records for doi:10.1093/toxsci/kfq269 (Amgen, 2010).

Some results are limits rather than exact numbers.

The assay deals with Bile salt export pump (Homo sapiens, UniProt O95342). Kind of assay: ChEBML_1661982. On the procedure: Inhibition of human BSEP expressed in fall armyworm sf9 cell plasma membrane vesicles assessed as reduction in vesicle-associated [3H]-taurocholate transport preincubated for 10 mins prior to ATP addition measured after 15 mins in presence of [3H]-taurocholate by topcount based membrane vesicle transport assay

`O=C1OC2(c3ccc(O)cc3Oc3cc(O)ccc32)c2ccccc21`: the IC50 was more than 135 µM.

As a reminder, the IC50 is the concentration that inhibits the measured activity by half.
